Values of other authors, collected in US20260144771A1, “Use of Triheptanoin Oil for Primary-Specific Pyruvate Dehydrogenase Complex (PDC) Deficiency” (University of Pittsburgh - Of the Commonwealth System of …, priority 2022, published 2026).
pKi: −log10 of the molar value.

Experiments:
PDC = PDC (Homo sapiens, UniProt P10515); details: read-out: Ki for end-product inhibition of PDC
[1] = human, in vivo
[2] = subjects with other mitochondrial disorders such as MELAS
[3] = system: PDC and 2-oxoglutarate dehydrogenase activities; details: chronic epilepsy mouse model
[4] = subjects with FAO disorders
[5] = a case of pyruvate carboxylase deficiency

For CC(=O)SCCNC(=O)CCNC(=O)[C@H](O)C(C)(C)COP(=O)(O)OP(=O)(O)OC[C@H]1O[C@@H](n2cnc3c(N)ncnc32)[C@H](O)[C@@H]1OP(=O)(O)O [acetyl-CoA], the pKi (PDC) is listed as 5.00 to 5.30.

For Cc1ncc(C[n+]2csc(CCO)c2C)c(N)n1 [Thiamine, thiamine], the adverse side-effects [1] is listed as “has not been reported to have adverse side-effects”.

For O=C(O)C(Cl)Cl [DCA, dichloroacetate], the neuropathy [2] is listed as “associated with toxic neuropathy”.

For CCC(=O)SCCNC(=O)CCNC(=O)[C@H](O)C(C)(C)COP(=O)(O)OP(=O)(O)OC[C@H]1O[C@@H](n2cnc3c(N)ncnc32)[C@H](O)[C@@H]1OP(=O)(O)O [propionyl-CoA], the pKi (PDC) is listed as 2.40 to 2.52.

For CCCCCCC(=O)OCC(COC(=O)CCCCCC)OC(=O)CCCCCC [triheptanoin], the “most commonly reported side effect: GI distress, share of cases” value is listed as ≥ 10 % of cases, the “effect on PDC and 2-oxoglutarate dehydrogenase activities” value [3] is listed as “prevented reduction” and the “incorporation of 13C derived from 13C-glucose in TCA cycle intermediates” value [3] is listed as “partially corrected the reduced incorporation”. The “biochemical and physical outcomes before and after treatment” value [4] was “significant improvement in cardiomyopathy and decreased frequency and severity of rhabdomyolysis” and the biochemical outcomes [5] was “rapid and significant improvement of biochemical outcomes”.
